Assay results as given in paper PMC7413254 (Nature Communications, 2020).

Columns and labels:
non-expressing oocytes = assay type: cell-based, Xenopus laevis; conditions: footnote b: highest intracellular concentration tested was 30 mM (solubility); for Total [3H]CQ transport, trans-stimulation by injected solute / Trans-stimulation data: total [3H]CQ transport: non-expressing oocytes; for Trans-stimulation data: total [3H]CQ transport: normalised to the oocyte type control (control = 100); for Trans-stimulation: total [3H]CQ transport, non-expressing oocytes: mean ± SEM, SEM
Description: Unless specified otherwise, the transport assays were conducted over 1.5 h at 27.5 °C and the reaction buffer was ND96 (96 mM NaCl, 2 mM KCl, 1 mM MgCl2, 1.8 mM CaCl2, 10 mM MES and 10 mM Tris-base) at pH 5.5.
The intracellular concentrations were calculated using previous estimates of the volume of stage V–VI oocytes (~400 nL[60]). […] The oocytes were injected with VF-6 suspended in 25 nL ND96 buffer adjusted to pH 5.0, 5.5, 6.0 or 7.0, which corresponded to the injection of 2.5–250 fmol of H^+. The Na^+-dependence of the trans-stimulatory effect of VF-6 was assessed by injecting the oocytes with VF-6 suspended in ND96 buffer (pH 5.5) or a Na^+-free version of this buffer (the Na^+ was replaced with choline).
At least four independent experiments were performed (on different days and using oocytes from different frogs), and within each experiment measurements were made from ten oocytes per treatment.

PfCRT^Ecu1110 [1] = molecular target: T1, PfCRT^Ecu1110 (Plasmodium falciparum, UniProt Q9N623, A220S/I356L/K76T/N326D); experiment: cell-based; assay type: cell-based; conditions: for Total [3H]CQ transport, trans-stimulation by injected solute / Trans-stimulation data: total [3H]CQ transport / PfCRT-mediated [3H]CQ transport, trans-stimulation (% PfCRTEcu1110 control): PfCRTEcu1110 oocytes; for Total [3H]CQ transport, trans-stimulation by injected solute / Trans-stimulation data: total [3H]CQ transport / Trans-stimulation: total [3H]CQ transport, PfCRTEcu1110 oocytes: footnote b: highest intracellular concentration tested was 30 mM (solubility); for Trans-stimulation data: total [3H]CQ transport: normalised to the oocyte type control (control = 100); for Trans-stimulation data: PfCRT-mediated [3H]CQ transport: footnote b: due to solubility the highest intracellular concentration tested was 30 mM, normalised to the oocyte type control = 100; for Trans-stimulation: total [3H]CQ transport, PfCRTEcu1110 oocytes: mean ± SEM, SEM
Outline: (§1)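 Oocytes (ten per treatment, ≥4 independent frogs/days) were preloaded by injecting VF-6 in 25 nL ND96 at pH 5.0, 5.5, 6.0 or 7.0, or Na^+-free choline buffer, then uptake run 1.5 h, 27.5 °C, ND96 pH 5.5 by default. Internal concentrations assumed ~400 nL oocyte volume.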

PfNT1 = molecular target: T2, PfNT1 (Plasmodium falciparum, UniProt Q8IDM6); experiment: cell-based; assay type: cell-based; conditions: footnote b: highest intracellular concentration tested was 30 mM (solubility); for Total [3H]CQ transport, trans-stimulation by injected solute / Trans-stimulation data: total [3H]CQ transport: PfNT1 oocytes; for Trans-stimulation data: total [3H]CQ transport: normalised to the oocyte type control (control = 100); for Trans-stimulation: total [3H]CQ transport, PfNT1 oocytes: mean ± SEM, SEM
T2 construct: expressed in transfected cells; host or cells: Xenopus laevis oocytes (stage V-VI), cRNA-injected
Outline: as §1

PfCRT^Dd2 [2] = molecular target: T3, PfCRT^Dd2 (Plasmodium falciparum, UniProt Q9N623, A220S/I356T/K76T/M74I/N326S/N75E/Q271E/R371I); experiment: cell-based; assay type: cell-based; conditions: for Total [3H]CQ transport, trans-stimulation by injected solute / Trans-stimulation data: total [3H]CQ transport / PfCRT-mediated [3H]CQ transport, trans-stimulation (% PfCRTDd2 control): PfCRTDd2 oocytes; for Total [3H]CQ transport, trans-stimulation by injected solute / Trans-stimulation data: total [3H]CQ transport / Trans-stimulation: total [3H]CQ transport, PfCRTDd2 oocytes: footnote b: highest intracellular concentration tested was 30 mM (solubility); for Trans-stimulation data: total [3H]CQ transport: normalised to the oocyte type control (control = 100); for PfCRT-mediated [3H]CQ transport, trans-stimulation by injected solute, PfCRTDd2 / Trans-stimulation data: PfCRT-mediated [3H]CQ transport: footnote b: due to solubility the highest intracellular concentration tested was 30 mM; for PfCRT-mediated [3H]CQ transport, trans-stimulation by injected solute, PfCRTDd2: background subtracted; for Trans-stimulation data: PfCRT-mediated [3H]CQ transport: normalised to the oocyte type control = 100; for Trans-stimulation: total [3H]CQ transport, PfCRTDd2 oocytes: mean ± SEM, SEM
Outline: as §1

PfCRT^3D7 = PfCRT^3D7 (Plasmodium falciparum, UniProt Q8IBZ9); experiment: cell-based; assay type: cell-based; conditions: for Trans-stimulation data: PfCRT-mediated [3H]CQ transport: 2nd of 6 trans-stimulation columns, footnote b: due to solubility the highest intracellular concentration tested was 30 mM, normalised to the oocyte type control = 100; for Total [3H]CQ transport, trans-stimulation by injected solute / Trans-stimulation data: total [3H]CQ transport / PfCRT-mediated [3H]CQ transport, trans-stimulation (% PfCRT3D7 control): PfCRT3D7 oocytes; for Total [3H]CQ transport, trans-stimulation by injected solute / Trans-stimulation data: total [3H]CQ transport / Trans-stimulation: total [3H]CQ transport, PfCRT3D7 oocytes: footnote b: highest intracellular concentration tested was 30 mM (solubility); for Trans-stimulation data: total [3H]CQ transport: normalised to the oocyte type control (control = 100); for Trans-stimulation: total [3H]CQ transport, PfCRT3D7 oocytes: mean ± SEM, SEM
Outline: as §1

PfCRT^Ecu1110 [3] = molecular target: T1, PfCRT^Ecu1110; experiment: [3H]CQ uptake into Xenopus oocytes, cis-inhibition by unlabelled solute; assay type: cell-based; conditions: PfCRTEcu1110 oocytes, background [3H]CQ accumulation subtracted, normalised to oocyte type control
Outline: (§2)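 ND96, pH 5.5, 1.5 h, 27.5 °C; uptake direction acidic outside → oocyte cytosol, mimicking efflux from digestive vacuole. Ice-cold wash stop, 10% SDS lysis, scintillation counting. Ten oocytes/treatment, ≥4 independent experiments.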

PfCRT^Dd2 [4] = molecular target: T3, PfCRT^Dd2; experiment: as above; assay type: cell-based; conditions: PfCRTDd2 oocytes, background [3H]CQ accumulation subtracted, normalised to oocyte type control
Outline: as §2

[5] = [test solute]i = 5 mM (intracellular), normalised to oocyte type control
[6] = cell marked b: highest intracellular concentration tested was 30 mM due to solubility

T1 sequence (Q9N623 whole entry A220S/I356L/K76T/N326D): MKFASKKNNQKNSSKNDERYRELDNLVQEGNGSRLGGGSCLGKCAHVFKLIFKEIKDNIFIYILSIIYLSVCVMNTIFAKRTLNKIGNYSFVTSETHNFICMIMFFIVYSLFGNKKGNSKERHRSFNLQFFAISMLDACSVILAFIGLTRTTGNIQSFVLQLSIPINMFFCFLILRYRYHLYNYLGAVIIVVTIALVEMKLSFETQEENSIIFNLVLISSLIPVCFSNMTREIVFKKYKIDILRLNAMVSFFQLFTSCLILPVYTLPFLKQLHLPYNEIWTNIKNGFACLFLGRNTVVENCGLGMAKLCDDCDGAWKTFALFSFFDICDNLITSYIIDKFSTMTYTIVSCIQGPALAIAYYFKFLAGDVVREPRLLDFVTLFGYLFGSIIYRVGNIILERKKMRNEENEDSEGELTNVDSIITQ
Sequence of PfCRT^3D7 (Q8IBZ9 59-398): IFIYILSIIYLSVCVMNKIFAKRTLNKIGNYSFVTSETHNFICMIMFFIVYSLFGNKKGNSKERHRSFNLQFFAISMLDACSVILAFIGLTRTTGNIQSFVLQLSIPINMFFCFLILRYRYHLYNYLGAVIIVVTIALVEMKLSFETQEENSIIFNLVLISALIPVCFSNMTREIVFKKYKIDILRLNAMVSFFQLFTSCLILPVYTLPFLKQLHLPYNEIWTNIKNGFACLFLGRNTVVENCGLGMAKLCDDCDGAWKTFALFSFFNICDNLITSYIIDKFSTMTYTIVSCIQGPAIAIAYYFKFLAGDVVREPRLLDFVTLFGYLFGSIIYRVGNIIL
T2 sequence (Q8IDM6 whole entry): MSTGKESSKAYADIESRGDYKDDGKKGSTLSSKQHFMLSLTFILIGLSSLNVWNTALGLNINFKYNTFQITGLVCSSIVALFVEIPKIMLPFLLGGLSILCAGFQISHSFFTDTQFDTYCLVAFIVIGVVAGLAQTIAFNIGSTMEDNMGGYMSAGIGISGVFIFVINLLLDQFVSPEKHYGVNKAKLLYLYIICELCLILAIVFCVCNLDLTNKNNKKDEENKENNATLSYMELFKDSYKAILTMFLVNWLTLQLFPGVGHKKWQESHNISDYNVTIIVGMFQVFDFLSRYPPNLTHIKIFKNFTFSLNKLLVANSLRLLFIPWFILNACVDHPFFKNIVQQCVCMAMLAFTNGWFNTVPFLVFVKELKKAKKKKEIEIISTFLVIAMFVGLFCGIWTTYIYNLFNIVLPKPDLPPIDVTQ
T3 sequence (Q9N623 whole entry A220S/I356T/K76T/M74I/N326S/N75E/Q271E/R371I): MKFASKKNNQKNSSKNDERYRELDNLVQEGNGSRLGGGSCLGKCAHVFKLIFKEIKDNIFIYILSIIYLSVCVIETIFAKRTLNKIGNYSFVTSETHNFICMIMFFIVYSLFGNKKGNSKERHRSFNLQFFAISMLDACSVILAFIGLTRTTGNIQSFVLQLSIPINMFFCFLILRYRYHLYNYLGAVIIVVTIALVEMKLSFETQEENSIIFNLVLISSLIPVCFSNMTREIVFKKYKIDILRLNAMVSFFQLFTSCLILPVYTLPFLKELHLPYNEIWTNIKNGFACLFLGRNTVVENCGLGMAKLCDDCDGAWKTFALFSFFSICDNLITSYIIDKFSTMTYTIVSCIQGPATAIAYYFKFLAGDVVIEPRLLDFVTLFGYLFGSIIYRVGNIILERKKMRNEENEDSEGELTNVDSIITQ

| Sequence | Total [3H]CQ transport, trans-stimulation by injected solute (non-expressing oocytes) | Trans-stimulation data: total [3H]CQ transport (non-expressing oocytes) [b] | Total [3H]CQ transport, trans-stimulation by injected solute (PfCRT^Ecu1110 [1]) | Trans-stimulation data: total [3H]CQ transport (PfCRT^Ecu1110 [1]) [b] | Trans-stimulation data: PfCRT-mediated [3H]CQ transport (PfCRT^Ecu1110 [1]) [b] | Total [3H]CQ transport, trans-stimulation by injected solute (PfNT1) | Trans-stimulation data: total [3H]CQ transport (PfNT1) [b] | Total [3H]CQ transport, trans-stimulation by injected solute (PfCRT^Dd2 [2]) | Trans-stimulation data: total [3H]CQ transport (PfCRT^Dd2 [2]) [b] | PfCRT-mediated [3H]CQ transport, trans-stimulation by injected solute, PfCRTDd2 (PfCRT^Dd2 [2]) | Trans-stimulation data: PfCRT-mediated [3H]CQ transport (PfCRT^Dd2 [2]) [b] | Trans-stimulation data: PfCRT-mediated [3H]CQ transport (PfCRT^3D7) [b] | Total [3H]CQ transport, trans-stimulation by injected solute (PfCRT^3D7) | Trans-stimulation data: total [3H]CQ transport (PfCRT^3D7) [b] | Trans-stimulation: total [3H]CQ transport, non-expressing oocytes (non-expressing oocytes) | Trans-stimulation: total [3H]CQ transport, PfCRTEcu1110 oocytes (PfCRT^Ecu1110 [1]) | Trans-stimulation: total [3H]CQ transport, PfNT1 oocytes (PfNT1) | Trans-stimulation: total [3H]CQ transport, PfCRTDd2 oocytes (PfCRT^Dd2 [2]) | Trans-stimulation: total [3H]CQ transport, PfCRT3D7 oocytes (PfCRT^3D7) | other results |
| --- | --- | --- | --- | --- | --- | --- | --- | --- | --- | --- | --- | --- | --- | --- | --- | --- | --- | --- | --- | --- |
| NAVAHVDDMPNALSALSDLH [NH-20, additional peptide, 20 residues] | 3.3 ± 0.07b % of the PfCRTDd2 control | 101 ± 4.8 | 32 ± 1.7b % of the PfCRTDd2 control | 100 ± 3.5 | 97 ± 3.2 | 3.2 ± 0.07b % of the PfCRTDd2 control | 100 ± 3.6 | 99 ± 2.8b % of the PfCRTDd2 control | 99 ± 2.8 | 97 ± 3.6b % of PfCRTDd2 control | 97 ± 3.6 | 95 ± 3.2 | 3.0 ± 0.05b % of the PfCRTDd2 control | 99 ± 3.5 | – | – | – | – | – | – |
| SFGDLSTPDAVMG [SG-13] | 3.0 ± 0.04b % of the PfCRTDd2 control | 100 ± 3.6 | 33 ± 1.4b % of the PfCRTDd2 control | 101 ± 2.4 | 99 ± 1.8 | 2.9 ± 0.09b % of the PfCRTDd2 control | 98 ± 2.4 | 100 ± 2.9b % of the PfCRTDd2 control | 100 ± 2.9 | 98 ± 3.0b % of PfCRTDd2 control | 98 ± 3.0 | 97 ± 1.9 | 3.1 ± 0.05b % of the PfCRTDd2 control | 99 ± 2.5 | – | – | – | – | – | – |
| VEPSDTIENVK [VK-11] | – | 98 ± 2.5 | – | 131 ± 2.1 | 127 ± 1.9 | – | 98 ± 3.3 | – | 98 ± 3.8 | 96 ± 2.1b % of PfCRTDd2 control | 96 ± 2.1 | 158 ± 1.9 | – | 163 ± 3.2 | 3.1 ± 0.08b % of PfCRTDd2 control | 42 ± 2.1b % of PfCRTDd2 control | 2.7 ± 0.03b % of PfCRTDd2 control | 98 ± 3.8b % of PfCRTDd2 control | 15 ± 0.3b % of PfCRTDd2 control | – |
| VHLTPEEKSAVT [VT-12] | – | – | – | 101 ± 3.2 | 99 ± 2.9 | – | 100 ± 2.8 | – | 100 ± 2.6 | 98 ± 2.2b % of PfCRTDd2 control | 98 ± 2.2 | 97 ± 2.9 | – | 99 ± 3.5 | 2.2 ± 0.03b % of PfCRTDd2 control | 33 ± 1.6b % of PfCRTDd2 control | 2.7 ± 0.06b % of PfCRTDd2 control | 100 ± 2.6b % of PfCRTDd2 control | 3.1 ± 0.06b % of PfCRTDd2 control | – |
| YFPHFDLS [YS-8] | – | 100 ± 2.8 | – | 99 ± 3.8 | – | – | 98 ± 3.5 | – | 99 ± 2.8 | 97 ± 1.7b % of PfCRTDd2 control | – | – | – | 100 ± 3.5 | 2.8 ± 0.05b % of PfCRTDd2 control | 32 ± 1.9b % of PfCRTDd2 control | 3.3 ± 0.08b % of PfCRTDd2 control | 99 ± 2.8b % of PfCRTDd2 control | 3.1 ± 0.04b % of PfCRTDd2 control | PfCRT-mediated [3H]CQ transport, cis-inhibition (% PfCRTEcu1110 control) (PfCRT^Ecu1110 [3]; [test solute] = 0.5 mM): 43 ± 3.2 % PfCRTEcu1110 control; PfCRT-mediated [3H]CQ transport, cis-inhibition (% PfCRTEcu1110 control) (PfCRT^Ecu1110 [3]; [test solute] = 1 mM): 33 ± 2.6 % PfCRTEcu1110 control; PfCRT-mediated [3H]CQ transport, cis-inhibition (% PfCRTEcu1110 control) (PfCRT^Ecu1110 [3]; [test solute] = 2 mM): 25 ± 1.5 % PfCRTEcu1110 control; PfCRT-mediated [3H]CQ transport, cis-inhibition (% PfCRTDd2 control) (PfCRT^Dd2 [4]; [test solute] = 0.5 mM): 38 ± 2.7 % PfCRTDd2 control; PfCRT-mediated [3H]CQ transport, cis-inhibition (% PfCRTDd2 control) (PfCRT^Dd2 [4]; [test solute] = 1 mM): 28 ± 0.5 % PfCRTDd2 control; PfCRT-mediated [3H]CQ transport, cis-inhibition (% PfCRTDd2 control) (PfCRT^Dd2 [4]; [test solute] = 2 mM): 17 ± 0.1 % PfCRTDd2 control; PfCRT-mediated [3H]CQ transport, trans-stimulation (% PfCRTEcu1110 control) (PfCRT^Ecu1110 [1]; [5]): 98 ± 3.1 % PfCRTEcu1110 control; PfCRT-mediated [3H]CQ transport, trans-stimulation (% PfCRTEcu1110 control) (PfCRT^Ecu1110 [1]; [6]): 97 ± 1.5b % PfCRTEcu1110 control; PfCRT-mediated [3H]CQ transport, trans-stimulation (% PfCRTDd2 control) (PfCRT^Dd2 [2]; [5]): 98 ± 1.1 % PfCRTDd2 control; PfCRT-mediated [3H]CQ transport, trans-stimulation (% PfCRTDd2 control) (PfCRT^Dd2 [2]; [6]): 97 ± 1.7b % PfCRTDd2 control; PfCRT-mediated [3H]CQ transport, trans-stimulation (% PfCRT3D7 control) (PfCRT^3D7; [5]): 96 ± 2.8 % PfCRT3D7 control; PfCRT-mediated [3H]CQ transport, trans-stimulation (% PfCRT3D7 control) (PfCRT^3D7; [6]): 98 ± 2.8b % PfCRT3D7 control |
